Legend:
[1] = target: 1b (BK) NS5bΔ21 (Hepatitis C virus genotype 1b (isolate BK) (HCV), UniProt P26663); assay: HCV polymerase inhibition assay, genotype 1b; format: biochemical, HCV genotype 1b (BK); details: 1b (BK) NS5bΔ21, 33P-GTP incorporation; read-out: 1b polymerase IC50 (range class)
Method: HCV polymerase reactions were carried out using a modified method of Howe et al., Antimicrobial Agents and Chemotherapy 2004 48(12): 4813-4821. Reactions contained a final concentration of, 0.5% DMSO, 50 nM, 1b (BK) NS5bΔ21, 20 mM Tris-HCl pH 7.5, 5 mM MgCl2, 5 mM MnCl2, 3 mM DTT, 0.05% BSA, 0.2 U/μL RNasin, 10 μg/mL Poly(rC) template, GTP (at Km) and 0.05 μCi/μL ^33P-GTP in a total reaction volume of 50 μL. Compounds were tested in a three fold dilution series, for example starting from 50 μM. Reactions were initiated with the addition of GTP and terminated after 1 hour with 50 μL ice cold 0.2 M EDTA. Terminated reactions were transferred to DEAE 96-well filter plates, unincorporated nucleotides washed from the filters and 50 μL scintillation fluid added prior to reading on a scintillation counter. Similarly, a genotype 3a (VRL-69) NS5bΔ21 polymerase enzyme assay was conducted using essentially the same method.
The compound concentration that reduced ^33P-GTP incorporation by 50% (IC50) was calculated using non-linear regression.

[2] = system: genotype 1b (Con 1) subgenomic replicon cell line; assay: HCV replicon assay, genotype 1b (Renilla luciferase); format: cell-based, HCV genotype 1b (Con 1); details: Hepatitis C virus; genotype 1b replicon, 72 hours, luciferase; read-out: genotype 1b EC50 (range class)
Method: A genotype 1b (Con 1) subgenomic replicon cell line based on Blight et al., Science 2000 290: 1972-1974, modified to express a Renilla luciferase reporter gene was used to assess antiviral activity of test compounds. Cell cultures were maintained in a sub-confluent state in DMEM with glutamine, 10% heat-inactivated foetal bovine serum (FBS) and G418 (Geneticin®).
For assay, cells were seeded at a density of 7000 cells/well into 96 well tissue culture trays in culture media lacking G418. Compounds were tested in a three fold dilution series, for example starting from 50 uM. After 72 hours incubation at 37° C. and 5% CO2, Renilla luciferase activity was quantified via the Promega Renilla Luciferase or Renilla-Glo™ Luciferase Assay Systems (Promega corporation. The same method was employed for replicon assays using subgenomic genotype 1a and 2a replicon cell lines with a seeding cell density of 5000 cells/well for the 2a cell lines.
The compound concentration that reduced luciferase activity by 50% (EC50) was calculated using non-linear regression.

Sequence of 1b (BK) NS5bΔ21 (P26663 2420-2989): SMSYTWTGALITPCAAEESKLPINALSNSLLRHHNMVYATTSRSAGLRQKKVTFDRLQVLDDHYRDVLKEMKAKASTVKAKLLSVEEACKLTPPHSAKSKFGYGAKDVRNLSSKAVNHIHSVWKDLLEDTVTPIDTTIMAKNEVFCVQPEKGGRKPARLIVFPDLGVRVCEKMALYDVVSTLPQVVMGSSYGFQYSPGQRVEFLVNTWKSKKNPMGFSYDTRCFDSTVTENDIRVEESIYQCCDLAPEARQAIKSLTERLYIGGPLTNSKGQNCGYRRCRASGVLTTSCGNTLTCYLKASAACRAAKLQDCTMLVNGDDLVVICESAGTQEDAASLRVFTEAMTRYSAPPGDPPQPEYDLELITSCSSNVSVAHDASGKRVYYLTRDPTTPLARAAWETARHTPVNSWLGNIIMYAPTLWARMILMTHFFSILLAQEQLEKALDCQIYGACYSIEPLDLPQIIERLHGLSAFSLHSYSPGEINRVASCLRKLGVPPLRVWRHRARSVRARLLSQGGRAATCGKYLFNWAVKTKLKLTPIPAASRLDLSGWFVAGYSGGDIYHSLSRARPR

Q: Which IC50 [1] does the source give for `CCN(c1cc2nn(-c3ccc(NCC(C)C)nc3)c(C(=O)NC)c2cc1C1CC1)S(C)(=O)=O` [Compound 110, 5-cyclopropyl-6-[ethyl(methylsulfonyl)amino]-2-[6-(isobutylamino)-3-pyridyl]-N-methyl-2H-indazole-3-carboxamide] here?
A: < 990 nM

Q: What about the EC50 [2] of the same molecule?
A: < 990 nM

Q: What does the source list for `CCCN(c1cc2nn(-c3ccc(Oc4ccc(F)cc4)cc3)c(C(=O)NC)c2cc1C1CC1)S(C)(=O)=O` [Compound 113]?
A: IC50 [1]: < 990 nM; EC50 [2]: < 990 nM

Q: `CNC(=O)c1c2cc(C3CC3)c(N(CCN3CCCCC3)S(C)(=O)=O)cc2nn1-c1ccc(Oc2ccc(F)cc2)cc1` [Compound 114] was tested. Which IC50 [1] did it give?
A: 1000 to 9990 nM

Q: What about the EC50 [2] of the same molecule?
A: 1000 to 9990 nM

Q: How did the IC50 [1] turn out when `CNC(=O)c1c2cc(C3CC3)c(N(CCCOC(=O)c3ccccc3C(=O)O)S(C)(=O)=O)cc2nn1-c1ccc(Oc2ccc(F)cc2)cc1` [Compound 115] was run?
A: < 990 nM

Q: And the EC50 [2]?
A: 1000 to 9990 nM

Q: For `CNC(=O)c1c2cc(C3CC3)c(N(CCCOC(C)=O)S(C)(=O)=O)cc2nn1-c1ccc(Nc2ccc(F)cc2)cc1` [Compound 116], which IC50 [1] is on record?
A: < 990 nM

Q: And the EC50 [2]?
A: < 990 nM

Q: Which results are given for `CNC(=O)c1c2cc(C3CC3)c(N(CCCOC(=O)c3cnccn3)S(C)(=O)=O)cc2nn1-c1ccc(Oc2ccc(F)cc2)cc1` [Compound 118]?
A: IC50 [1]: < 990 nM; EC50 [2]: < 990 nM

Q: How did the IC50 [1] turn out when `CNC(=O)c1c2cc(C3CC3)c(N(CCCO)S(C)(=O)=O)cc2nn1-c1ccc(NCC(C)C)cc1` [Compound 122] was run?
A: 1000 to 9990 nM

Q: What about the EC50 [2] of the same molecule?
A: < 990 nM

Q: For `CCN(c1cc2nn(-c3ccc(Nc4ccccc4F)cc3)c(C(=O)NC)c2cc1OC)S(C)(=O)=O` [Compound 123], which IC50 [1] is on record?
A: 1000 to 9990 nM

Q: And the EC50 [2]?
A: < 990 nM

Q: Which IC50 [1] does the source give for `CCN(c1cc2nn(-c3ccc(NCC(C)C)cc3)c(C(=O)NC)c2cc1OC)S(C)(=O)=O` [Compound 124] here?
A: 1000 to 9990 nM

Q: And the EC50 [2]?
A: 1000 to 9990 nM

Q: With `CCN(c1cc2nn(-c3ccccc3)c(C(=O)NC)c2cc1OC)S(C)(=O)=O` [Compound 125] as the molecule, how does the IC50 [1] read?
A: 10000 to 50000 nM

Q: And the EC50 [2]?
A: 1000 to 9990 nM

Q: How did the IC50 [1] turn out when `CNC(=O)c1c2cc(OC)c(N(CCCO)S(C)(=O)=O)cc2nn1-c1ccc(Nc2ccccc2F)cc1` [Compound 126] was run?
A: 1000 to 9990 nM

Q: What about the EC50 [2] of the same molecule?
A: 1000 to 9990 nM

Q: With `CNC(=O)c1c2cc(C3CC3)c(N3CCCCC3=O)cc2nn1-c1ccc(Nc2ccc(F)cc2)cc1` [Compound 127] as the molecule, how does the IC50 [1] read?
A: 10000 to 50000 nM

Q: And the EC50 [2]?
A: 1000 to 9990 nM

Q: With `CNC(=O)c1c2cc(C3CC3)c(N3CCCS3(=O)=O)cc2nn1-c1ccc(Br)cc1` [Compound 128] as the molecule, how does the IC50 [1] read?
A: 1000 to 9990 nM

Q: And the EC50 [2]?
A: 1000 to 9990 nM

Q: `C=C(C)c1cc2c(C(=O)NC)n(-c3ccc(F)cc3)nc2cc1N(CC)S(C)(=O)=O` [Compound 129] was tested. Which IC50 [1] did it give?
A: 10000 to 50000 nM

Q: And the EC50 [2]?
A: 1000 to 9990 nM

Q: For `CCN(c1cc2nn(-c3ccc(F)cc3)c(C(=O)NC)c2cc1Br)S(C)(=O)=O` [Compound 132], which IC50 [1] is on record?
A: 1000 to 9990 nM

Q: And the EC50 [2]?
A: 10000 to 50000 nM

Q: `CNC(=O)c1c2cc(C3CC3)c(N(CCCNC(=O)CN)S(C)(=O)=O)cc2nn1-c1ccc(Br)cc1` [Compound 133] was tested. Which IC50 [1] did it give?
A: < 990 nM

Q: And the EC50 [2]?
A: 1000 to 9990 nM
